Measured values as given in BigSolDB 2.1.

SMILES	solubility (mole fraction) (in n-octanol, 298.15 K)	solubility (mole fraction) (in n-octanol, 303.15 K)	solubility (mole fraction) (in n-octanol, 308.15 K)	solubility (mole fraction) (in n-octanol, 313.15 K)	solubility (mole fraction) (in n-octanol, 318.15 K)	solubility (mole fraction) (in water, 298.15 K)	solubility (mole fraction) (in water, 303.15 K)	solubility (mole fraction) (in water, 308.15 K)	solubility (mole fraction) (in water, 313.15 K)	solubility (mole fraction) (in water, 318.15 K)
O=c1c(O)c(-c2ccc(O)c(O)c2)oc2cc(O)cc(O)c12	0.00526	0.00608	0.00677	0.00747	0.00823	5.29e-09	1.02e-08	1.61e-08	2.34e-08	3.78e-08
O=c1cc(-c2ccc(O)c(O)c2)oc2cc(O)cc(O)c12	0.0002	0.00021	0.00023	0.00025	0.00027	4.54e-08	6.74e-08	1.2e-07	1.91e-07	3.74e-07
COc1ccc(-c2coc3cc(O)ccc3c2=O)cc1	0.00056	0.0006	0.00065	0.00069	0.00075	7.85e-10	3.51e-09	6.78e-09	1.08e-08	1.5e-08
O=c1cc(-c2ccccc2)oc2cc(O)cc(O)c12	0.00208	0.00218	0.00228	0.00234	0.00247	5.95e-10	1.24e-09	3.63e-09	1e-08	1.88e-08
O=c1c(O)c(-c2ccc(O)cc2)oc2cc(O)cc(O)c12	0.00857	0.00895	0.00965	0.0103	0.0118	4.59e-10	1.17e-09	2.31e-09	4.48e-09	7.65e-09
O=c1c(O)c(-c2ccc(O)cc2O)oc2cc(O)cc(O)c12	0.00226	0.00235	0.00251	0.00265	0.00288	6.19e-09	2.24e-08	3.25e-08	4.57e-08	9.53e-08

Second part, the compound after the results:

solubility (mole fraction) (in n-octanol, 298.15 K)	solubility (mole fraction) (in n-octanol, 303.15 K)	solubility (mole fraction) (in n-octanol, 308.15 K)	solubility (mole fraction) (in n-octanol, 313.15 K)	solubility (mole fraction) (in n-octanol, 318.15 K)	solubility (mole fraction) (in water, 298.15 K)	solubility (mole fraction) (in water, 303.15 K)	solubility (mole fraction) (in water, 308.15 K)	solubility (mole fraction) (in water, 313.15 K)	solubility (mole fraction) (in water, 318.15 K)	SMILES
0.00077	0.0008	0.00084	0.00094	0.00102	7.47e-09	1.73e-08	2.96e-08	5.87e-08	1.03e-07	O=c1cc(-c2ccc(O)cc2)oc2cc(O)cc(O)c12
0.00269	0.00299	0.0033	0.00379	0.0042	5.51e-08	1.35e-07	2.52e-07	4.66e-07	7.9e-07	COc1ccc(C2CC(=O)c3c(O)cc(O)cc3O2)cc1O (stereo not given)
0.00903	0.00963	0.0103	0.0109	0.0114	1.79e-07	2.98e-07	4.96e-07	7.64e-07	1.1e-06	O=C1C[C@@H](c2ccc(O)cc2)Oc2cc(O)cc(O)c21
0.0127	0.0141	0.0157	0.0176	0.0196	2.55e-05	3.18e-05	4.5e-05	6.88e-05	8.05e-05	O=C1c2c(O)cc(O)cc2OC(c2ccc(O)c(O)c2)C1O (stereo not given)
